From PubChem BioAssay AID192 (DTP/NCI, 2004)
Several values for one entry are separate records, joined by “and”; a condition that tells them apart may be missing. Equal values may be shown once. Inconclusive results and toxic doses are left out. How the source made its calls: active means survival T/C of 150% or more; inactive means T/C below 125% in these data.

Test system: BDF1 mice, B16 melanoma ip, median survival T/C
Experiment: NCI In Vivo Anticancer Drug Screen. Data for tumor model B16 Melanoma (intraperitoneal) in B6D2F1 (BDF1) mice
Conditions: endpoint: median survival time, higher = longer survival
Procedure, shortened: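 Survival or tumor size is measured after treatment of tumor-bearing mice and normalised to the vehicle-treated control group.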

[1] = dose: 50.0 mg/kg/injection, schedule: Q01DX009 (ip), vehicle: Klucel (hydroxypropylcellulose) (HPC)
[2] = dose: 50.0 mg/kg/injection, schedule: Q01DX009 (ip), vehicle: saline with Tween-80
[3] = dose: 100.0 mg/kg/injection, schedule: Q01DX009 (ip), vehicle: Klucel (hydroxypropylcellulose) (HPC)
[4] = dose: 100.0 mg/kg/injection, schedule: Q01DX009 (ip), vehicle: saline with Tween-80
[5] = dose: 100.0 mg/kg/injection, schedule: Q04DX003 (ip), vehicle: Klucel (hydroxypropylcellulose) (HPC)
[6] = dose: 200.0 mg/kg/injection, schedule: Q01DX009 (ip), vehicle: Klucel (hydroxypropylcellulose) (HPC)
[7] = dose: 200.0 mg/kg/injection, schedule: Q01DX009 (ip), vehicle: saline with Tween-80
[8] = dose: 200.0 mg/kg/injection, schedule: Q04DX003 (ip), vehicle: Klucel (hydroxypropylcellulose) (HPC)
[9] = dose: 400.0 mg/kg/injection, schedule: Q01DX009 (ip), vehicle: Klucel (hydroxypropylcellulose) (HPC)
[10] = dose: 400.0 mg/kg/injection, schedule: Q01DX009 (ip), vehicle: saline with Tween-80
[11] = dose: 400.0 mg/kg/injection, schedule: Q04DX003 (ip), vehicle: Klucel (hydroxypropylcellulose) (HPC)
[12] = dose: 12.5 mg/kg/injection, schedule: Q04DX003 (ip), vehicle: saline with Tween-80
[13] = dose: 25.0 mg/kg/injection, schedule: Q04DX003 (ip), vehicle: saline with Tween-80
[14] = dose: 50.0 mg/kg/injection, schedule: Q04DX003 (ip), vehicle: saline with Tween-80
[15] = dose: 100.0 mg/kg/injection, schedule: Q04DX003 (ip), vehicle: saline with Tween-80
[16] = dose: 25.0 mg/kg/injection, schedule: Q01DX009 (ip), vehicle: saline with Tween-80
[17] = dose: 6.25 mg/kg/injection, schedule: Q01DX009 (ip), vehicle: saline with Tween-80
[18] = dose: 12.5 mg/kg/injection, schedule: Q01DX009 (ip), vehicle: saline with Tween-80
[19] = dose: 50.0 mg/kg/injection, schedule: Q01DX009 (ip), vehicle: saline
[20] = dose: 100.0 mg/kg/injection, schedule: Q01DX009 (ip), vehicle: saline
[21] = dose: 200.0 mg/kg/injection, schedule: Q01DX009 (ip), vehicle: saline
[22] = dose: 12.5 mg/kg/injection, schedule: Q01DX009 (ip), vehicle: saline
[23] = dose: 25.0 mg/kg/injection, schedule: Q01DX009 (ip), vehicle: saline

Measured: T/C

CCCCCCCCCC(O)CCCCC (configuration not stated)
inactive: dose: 75.0 mg/kg/injection, schedule: Q04DX003 (ip), vehicle: saline with Tween-80 102 % of control | dose: 150.0 mg/kg/injection, schedule: Q04DX003 (ip), vehicle: saline with Tween-80 94 % of control | dose: 300.0 mg/kg/injection, schedule: Q04DX003 (ip), vehicle: saline with Tween-80 100 % of control

CN(C)C(=S)S
inactive: dose: 25.0 mg/kg/injection, schedule: Q01DX009 (ip), vehicle: Klucel (hydroxypropylcellulose) (HPC) 118 % of control | dose: 25.0 mg/kg/injection, schedule: Q04DX003 (ip), vehicle: Klucel (hydroxypropylcellulose) (HPC) 100 % of control | [1] 103 % of control | [2] 89 % of control | dose: 50.0 mg/kg/injection, schedule: Q04DX003 (ip), vehicle: Klucel (hydroxypropylcellulose) (HPC) 105 % of control | [3] 91 % of control | [4] 105 % of control | [5] 94 % of control | [6] 116 % of control | [7] 98 % of control | [8] 94 % of control | [9] 98 % of control | [10] 89 % of control | [11] 97 % of control

[O-]c1c[n+](C23CCC(c4ccccc42)c2ccccc23)no1
inactive: dose: 75.0 mg/kg/injection, schedule: Q01DX009 (ip), vehicle: Klucel (hydroxypropylcellulose) (HPC) 102 % of control | dose: 150.0 mg/kg/injection, schedule: Q01DX009 (ip), vehicle: Klucel (hydroxypropylcellulose) (HPC) 100 % of control | dose: 300.0 mg/kg/injection, schedule: Q01DX009 (ip), vehicle: Klucel (hydroxypropylcellulose) (HPC) 108 % of control

COc1ccc(-c2cc(=O)c3c(ccc4ccccc43)o2)cc1
inactive: [3] 94 % of control | [6] 100 % of control | [9] 102 % of control

Cc1c(Cl)cccc1NC(=O)c1ccc([N+](=O)[O-])cc1
inactive: [4] 105 % of control | [7] 100 % of control

COC(=O)N1C=Cc2ccccc2C1C#N (configuration not stated)
inactive: [2] 95 % of control | [4] 87 % of control

Cc1cc(C)c(NC(=O)Nc2cccc(Cl)c2)c(C)c1
inactive: [3] 88 % of control | [6] 94 % of control

CC(=O)CC(=O)N1CCCC(C)C1 (configuration not stated)
inactive: [3] 116 % of control | [6] 109 % of control | [9] 110 % of control

CCCCN(CCCC)C(=O)c1[nH]cnc1/N=N\N(C)C
inactive: [12] 110 % of control | [13] 92 % of control | [14] 117 % of control | [15] 93 % of control

COc1ccc(NC(=O)Nc2ccc(Br)cc2)cc1
inactive: [16] 98 % of control | [2] 92 % of control | [4] 89 % of control and 95 % of control

CC(C)Cc1ccc(OC(=O)Nc2ccc(Cl)cc2)cc1
inactive: [17] 97 % of control | [18] 100 % of control | [16] 91 % of control and 98 % of control

NCCC(O)C(=O)NC1CC(N)C(OC2OC(CO)C(O)C(O)C2N)C(OC2OC(CO)C(O)C2O)C1O (configuration not stated)
inactive: dose: 10.0 mg/kg/injection, schedule: Q01DX009 (ip), vehicle: saline 122 % of control | dose: 20.0 mg/kg/injection, schedule: Q01DX009 (ip), vehicle: saline 124 % of control

CC1(C#N)CCc2c(ccc3ccccc23)C1=O (configuration not stated)
inactive: dose: 50.0 mg/kg/injection, schedule: Q04DX003 (ip), vehicle: other 122 % of control | dose: 100.0 mg/kg/injection, schedule: Q04DX003 (ip), vehicle: other 107 % of control | [15] 95 % of control | dose: 400.0 mg/kg/injection, schedule: Q04DX003 (ip), vehicle: saline with Tween-80 95 % of control

C/C=C(/C#N)c1ccccc1
inactive: [14] 100 % of control | [15] 97 % of control

NCCCNCCCCNC(=O)C(O)NC(=O)CCCCCCN=C(N)N (configuration not stated)
inactive: dose: 6.0 mg/kg/injection, schedule: Q01DX009 (ip), vehicle: saline 96 % of control | dose: 12.0 mg/kg/injection, schedule: Q01DX009 (ip), vehicle: saline 96 % of control | dose: 24.0 mg/kg/injection, schedule: Q01DX009 (ip), vehicle: saline 93 % of control | dose: 48.0 mg/kg/injection, schedule: Q01DX009 (ip), vehicle: saline 100 % of control

CC1(C)CCSC(/C=C/c2ccccc2)=N1
inactive: [1] 96 % of control | [3] 94 % of control | [6] 91 % of control

C=C(C)C(=O)O[C@H]1CC2=C[C@@H](C[C@@]3(C)O[C@@H]3[C@H]3OC(=O)C(=C)[C@@H]31)OC2=O
inactive: dose: 3.75 mg/kg/injection, schedule: Q01DX009 (ip), vehicle: Klucel (hydroxypropylcellulose) (HPC) 89 % of control | dose: 7.5 mg/kg/injection, schedule: Q01DX009 (ip), vehicle: Klucel (hydroxypropylcellulose) (HPC) 97 % of control | dose: 15.0 mg/kg/injection, schedule: Q01DX009 (ip), vehicle: Klucel (hydroxypropylcellulose) (HPC) 92 % of control

COC1/C=C\C=C(/C)C(=O)Nc2cc3nc4cccc(Br)c4oc-3c(c2=O)CC(C)CC(OC)C(O)C(C)/C=C(\C)C1OC(N)=O (configuration not stated)
inactive: dose: 12.5 mg/kg/injection, schedule: Q01DX005 (ip), vehicle: other 103 % of control | dose: 25.0 mg/kg/injection, schedule: Q01DX005 (ip), vehicle: other 98 % of control | dose: 50.0 mg/kg/injection, schedule: Q01DX005 (ip), vehicle: other 108 % of control | dose: 100.0 mg/kg/injection, schedule: Q01DX005 (ip), vehicle: other 107 % of control | dose: 200.0 mg/kg/injection, schedule: Q01DX005 (ip), vehicle: other 94 % of control

CCC1CCCCN1C(=S)N/N=C(\C)c1ccccn1 (configuration not stated)
inactive: [17] 96 % of control | [18] 95 % of control

COC(=O)C1C2CC(C3OC23)C1C(=O)OC (configuration not stated)
inactive: [5] 94 % of control | [8] 100 % of control | [11] 96 % of control

CCN(CC)CCOC(=O)CC1CCCCC1
inactive: [19] 99 % of control | [20] 96 % of control | [21] 95 % of control

O=c1c(O)c(-c2cc(O)c(O)c(O)c2)oc2cc(O)cc(O)c12
inactive: dose: 25.0 mg/kg/injection, schedule: Q02DX009 (ip), vehicle: saline with Tween-80 95 % of control | dose: 50.0 mg/kg/injection, schedule: Q02DX009 (ip), vehicle: saline with Tween-80 110 % of control | dose: 100.0 mg/kg/injection, schedule: Q02DX009 (ip), vehicle: saline with Tween-80 105 % of control

c1ccc(C[n+]2ccc3ccccc3c2)cc1
inactive: dose: 6.25 mg/kg/injection, schedule: Q01DX009 (ip), vehicle: saline 105 % of control and 113 % of control | dose: 6.25 mg/kg/injection, schedule: Q04DX003 (ip), vehicle: saline with Tween-80 95 % of control | [22] 117 % of control | [12] 107 % of control | [23] 108 % of control and 110 % of control | [13] 100 % of control

O=c1[nH]/c(=C\c2ccc3c(c2)OCO3)c(=O)[nH]/c1=C\c1ccc2c(c1)OCO2
inactive: dose: 12.5 mg/kg/injection, schedule: Q01DX009 (ip), vehicle: carboxymethylcellulose (CMC) 113 % of control | dose: 25.0 mg/kg/injection, schedule: Q01DX009 (ip), vehicle: carboxymethylcellulose (CMC) 100 % of control | dose: 50.0 mg/kg/injection, schedule: Q01DX009 (ip), vehicle: carboxymethylcellulose (CMC) 106 % of control | [3] 86 % of control

CCOc1ccccc1NC(=O)Nc1ccccc1Cl
inactive: [4] 103 % of control | [7] 94 % of control | [10] 89 % of control

O=C1CN(CN2CCOCC2)C(=O)CN1CN1CCOCC1
inactive: [22] 98 % of control | [23] 102 % of control | [19] 112 % of control | [20] 104 % of control | [21] 101 % of control

CC(=O)NC(Cc1cc(I)c(OC(C)=O)c(I)c1)C(=O)O (configuration not stated)
inactive: [2] 100 % of control | [4] 97 % of control | [7] 90 % of control
